Source: patent US11690860B2, “Treatment of HCV infected patients with cirrhosis” (Atea Pharmaceuticals, Inc., priority 2018, dated 2023)
Entries after “also recorded” stand apart in the source; their conditions may differ. Where two headings read alike, the source gives them in different places.

Experiments:
[1] = Plasma pharmacokinetics of Compound 1 and metabolite 1-7 (LC-MS/MS) in Parts C, D and E; type: in vivo, human; details: for AUC Day 1 (AUCinf for Compound 1) / Cmax / half-life / Tmax / AUC SS (AUCinf for Compound 1): n=6; for Cmax / half-life / Tmax: human, in vivo
Method: Doses were administered as the Compound 2 salt base. The free base Compound 1 equivalent is often given in parenthesis.
Part C was a randomized, double-blind, placebo-controlled MAD study divided into three cohorts. […] The dose escalation only proceeded following satisfactory review of the data.
HCV-infected patients were treatment-naïve with HCV RNA ≥5 log 10 IU/mL. HCV RNA was quantified using COBAS® AmpliPrep TaqMAN® v2.0 with LLQ of 15 IU/mL. Plasma drug levels were measured using LC-MS/MS. […] Cirrhosis was confirmed by prior liver biopsy or Fibroscan >12.5 kPa. […] Mean ages of enrolled subjects were 44, 39, and 56 years in the non-cirrhotic GT1b 600 mg dose cohort, non-cirrhotic GT3 cohort, and the cirrhotic cohort, respectively.
Plasma levels of metabolite 1-7 were measured using LC-MS/MS.

HCV GT2 replicons = assay: EC95 in replicons containing HCV constructs of clinical isolates, GT2; type: cell-based; details: HCV GT2, expressed as equivalents of metabolite 1-7
Method: (§1) For rapidly-replicating viruses such as HCV, maintenance of antiviral activity throughout inter-dose time intervals optimizes efficacy by reducing chances for recrudescent viral replication during inter-dose trough periods. […] In those cohorts receiving 600 mg QD, ˜30% of subjects achieved HCV RNA below the lower limit of quantitation with only seven days of therapy.

HCV GT3 replicons = assay: EC95 in replicons containing HCV constructs of clinical isolates, GT3; type: cell-based; details: HCV GT3, expressed as equivalents of metabolite 1-7
Method: as §1

[2] = Part C, daily dosing for 7 days

With `CNc1nc(N)nc2c1ncn2[C@@H]1O[C@H](CO[P@@](=O)(N[C@@H](C)C(=O)OC(C)C)Oc2ccccc2)[C@@H](O)[C@@]1(C)F` [Compound 1, isopropyl((S)-(((2R,3R,4R,5R)-5-(2-amino-6-(methylamino)-9H-purin-9-yl)-4-fluoro-3-hydroxy-4-methyltetrahydrofuran-2-yl)methoxy)(phenoxy)phosphoryl)-L-alaninate] as the compound, how does the “PK in cirrhotic compared with non-cirrhotic subjects” value ([1]; 600 mg QD of Compound 2, Parts C/D vs Part E) read?
The value was “comparable”.

And the “dose proportionality of plasma exposure (peak and total)” value ([1]; Part C, 150 to 600 mg Compound 2)?
The value was “slightly more than dose proportional from 150 mg to 300 mg and mostly dose proportional thereafter”.

And the “AUC Day 1 (AUCinf for Compound 1)” value ([1]; Part C, NC GT1b, 150 mg/d Compound 2 QD)?
The value was 492 ± 141 ng/mLxh.

And the “AUC Day 1 (AUCinf for Compound 1)” value ([1]; Part C, NC GT1b, 300 mg/d Compound 2 QD)?
The value was 1947 ± 1120 ng/mLxh.

And the “AUC Day 1 (AUCinf for Compound 1)” value ([1]; Part C, NC GT1b, 600 mg/d Compound 2 QD)?
Its value is 3335 ± 1502 ng/mLxh.

What about the accumulation [1, 2] of the same compound?
Its accumulation is “did not accumulate over time”.

And the “half-life (in words)” value [1, 2]?
The value was “short half-life”.

And the “AUC Day 1 (AUCinf for Compound 1)” value ([1]; Part D, NC GT3, 600 mg/d Compound 2 QD)?
Its value is 3333 ± 1241 ng/mLxh.

What about the “AUC Day 1 (AUCinf for Compound 1)” value ([1]; Part E, Child-Pugh A cirrhotic, 600 mg/d Compound 2 QD) of the same compound?
The value was 3323 ± 1467 ng/mLxh.

What about the absorption ([1]; after administration of Compound 2, fasted state) of the same compound?
Its absorption is “rapidly and well-absorbed; also recorded: quickly absorbed”.

And the estimated fraction absorbed ([1]; based on urine recovery)?
The estimated fraction absorbed was about 50%.

And the Cmax ([1]; 150 mg/d, Part C, NC GT1b, 150 mg/d Compound 2 QD, read-out: Cmax Day 1)?
The Cmax was 573 ± 280 ng/mL.

What about the half-life ([1]; 150 mg/d, Part C, NC GT1b, 150 mg/d Compound 2 QD, read-out: T1/2 Day 1 (converted)) of the same compound?
The half-life was 37.2 min.

What about the Tmax ([1]; 150 mg/d, Part C, NC GT1b, 150 mg/d Compound 2 QD, read-out: Tmax Day 1) of the same compound?
Its Tmax is 30 min.

What about the Cmax ([1]; 150 mg/d, steady state, Part C, NC GT1b, 150 mg/d Compound 2 QD, read-out: Cmax SS) of the same compound?
Its Cmax is 462 ± 409 ng/mL.

What about the half-life ([1]; 150 mg/d, steady state, Part C, NC GT1b, 150 mg/d Compound 2 QD, read-out: T1/2 SS (converted)) of the same compound?
The half-life was 38.4 min.

And the Tmax ([1]; 150 mg/d, steady state, Part C, NC GT1b, 150 mg/d Compound 2 QD, read-out: Tmax SS)?
Its Tmax is 60 min.

And the Cmax ([1]; 300 mg/d, Part C, NC GT1b, 300 mg/d Compound 2 QD, read-out: Cmax Day 1)?
Its Cmax is 2280 ± 893 ng/mL.

What about the half-life ([1]; 300 mg/d, Part C, NC GT1b, 300 mg/d Compound 2 QD, read-out: T1/2 Day 1 (converted)) of the same compound?
Its half-life is 48 min.

And the Tmax ([1]; 300 mg/d, Part C, NC GT1b, 300 mg/d Compound 2 QD, read-out: Tmax Day 1)?
The Tmax was 30 min.

And the Cmax ([1]; 300 mg/d, steady state, Part C, NC GT1b, 300 mg/d Compound 2 QD, read-out: Cmax SS)?
Its Cmax is 1830 ± 1310 ng/mL.

What about the half-life ([1]; 300 mg/d, steady state, Part C, NC GT1b, 300 mg/d Compound 2 QD, read-out: T1/2 SS (converted)) of the same compound?
The half-life was 43.8 min.

And the Tmax ([1]; 300 mg/d, steady state, Part C, NC GT1b, 300 mg/d Compound 2 QD, read-out: Tmax SS)?
Its Tmax is 30 min.

And the Cmax ([1]; 600 mg/d, Part C, NC GT1b, 600 mg/d Compound 2 QD, read-out: Cmax Day 1)?
Its Cmax is 4210 ± 2300 ng/mL.

What about the half-life ([1]; 600 mg/d, Part C, NC GT1b, 600 mg/d Compound 2 QD, read-out: T1/2 Day 1 (converted)) of the same compound?
The half-life was 51.6 min.

And the Tmax ([1]; 600 mg/d, Part C, NC GT1b, 600 mg/d Compound 2 QD, read-out: Tmax Day 1)?
Its Tmax is 30 min.

And the Cmax ([1]; 600 mg/d, Part D, NC GT3, 600 mg/d Compound 2 QD, read-out: Cmax Day 1)?
The Cmax was 3970 ± 1940 ng/mL.

And the half-life ([1]; 600 mg/d, Part D, NC GT3, 600 mg/d Compound 2 QD, read-out: T1/2 Day 1 (converted))?
Its half-life is 43.8 min.

What about the Tmax ([1]; 600 mg/d, Part D, NC GT3, 600 mg/d Compound 2 QD, read-out: Tmax Day 1) of the same compound?
The Tmax was 30 min.

What about the Cmax ([1]; 600 mg/d, Part E, Child-Pugh A cirrhotic, 600 mg/d Compound 2 QD, read-out: Cmax Day 1) of the same compound?
Its Cmax is 3410 ± 2180 ng/mL.

What about the half-life ([1]; 600 mg/d, Part E, Child-Pugh A cirrhotic, 600 mg/d Compound 2 QD, read-out: T1/2 Day 1 (converted)) of the same compound?
Its half-life is 51.6 min.

And the Tmax ([1]; 600 mg/d, Part E, Child-Pugh A cirrhotic, 600 mg/d Compound 2 QD, read-out: Tmax Day 1)?
The Tmax was 30 min.

What about the Cmax ([1]; 600 mg/d, steady state, Part C, NC GT1b, 600 mg/d Compound 2 QD, read-out: Cmax SS) of the same compound?
The Cmax was 3600 ± 1740 ng/mL.

And the half-life ([1]; 600 mg/d, steady state, Part C, NC GT1b, 600 mg/d Compound 2 QD, read-out: T1/2 SS (converted))?
The half-life was 51 min.

What about the Tmax ([1]; 600 mg/d, steady state, Part C, NC GT1b, 600 mg/d Compound 2 QD, read-out: Tmax SS) of the same compound?
Its Tmax is 30 min.

What about the Cmax ([1]; 600 mg/d, steady state, Part D, NC GT3, 600 mg/d Compound 2 QD, read-out: Cmax SS) of the same compound?
The Cmax was 4140 ± 2280 ng/mL.

And the half-life ([1]; 600 mg/d, steady state, Part D, NC GT3, 600 mg/d Compound 2 QD, read-out: T1/2 SS (converted))?
The half-life was 49.8 min.

What about the Tmax ([1]; 600 mg/d, steady state, Part D, NC GT3, 600 mg/d Compound 2 QD, read-out: Tmax SS) of the same compound?
Its Tmax is 30 min.

What about the Cmax ([1]; 600 mg/d, steady state, Part E, Child-Pugh A cirrhotic, 600 mg/d Compound 2 QD, read-out: Cmax SS) of the same compound?
Its Cmax is 3190 ± 2080 ng/mL.

And the half-life ([1]; 600 mg/d, steady state, Part E, Child-Pugh A cirrhotic, 600 mg/d Compound 2 QD, read-out: T1/2 SS (converted))?
Its half-life is 48.6 min.

And the Tmax ([1]; 600 mg/d, steady state, Part E, Child-Pugh A cirrhotic, 600 mg/d Compound 2 QD, read-out: Tmax SS)?
The Tmax was 30 min.

And the “AUC SS (AUCinf for Compound 1)” value ([1]; steady state, Part C, NC GT1b, 150 mg/d Compound 2 QD)?
Its value is 475 ± 301 ng/mLxh.

What about the “AUC SS (AUCinf for Compound 1)” value ([1]; steady state, Part C, NC GT1b, 300 mg/d Compound 2 QD) of the same compound?
The value was 1510 ± 976 ng/mLxh.

What about the “AUC SS (AUCinf for Compound 1)” value ([1]; steady state, Part C, NC GT1b, 600 mg/d Compound 2 QD) of the same compound?
The value was 4036 ± 2093 ng/mLxh.

What about the “AUC SS (AUCinf for Compound 1)” value ([1]; steady state, Part D, NC GT3, 600 mg/d Compound 2 QD) of the same compound?
The value was 3754 ± 2275 ng/mLxh.

What about the “AUC SS (AUCinf for Compound 1)” value ([1]; steady state, Part E, Child-Pugh A cirrhotic, 600 mg/d Compound 2 QD) of the same compound?
Its value is 3527 ± 1605 ng/mLxh.

And the EC95 (HCV GT2 replicons)?
Its EC95 is about 12 ng/mL.

And the EC95 (HCV GT3 replicons)?
The EC95 was about 18 ng/mL.
